Experimental findings from US6362216B1, “Compounds which inhibit tryptase activity” (Array Biopharma Inc., priority 1998, dated 2002) are described below.

Each structure is given as a SMILES string.

Holding throughout (assay type): biochemical
The target of assay [1] is T1, Bovine pancreatic Trypsin (TPCK-treated) (Bos taurus, UniProt P00760).
T1 construct: from tissue; host or cells: bovine pancreas
T1 sequence (P00760 24-246): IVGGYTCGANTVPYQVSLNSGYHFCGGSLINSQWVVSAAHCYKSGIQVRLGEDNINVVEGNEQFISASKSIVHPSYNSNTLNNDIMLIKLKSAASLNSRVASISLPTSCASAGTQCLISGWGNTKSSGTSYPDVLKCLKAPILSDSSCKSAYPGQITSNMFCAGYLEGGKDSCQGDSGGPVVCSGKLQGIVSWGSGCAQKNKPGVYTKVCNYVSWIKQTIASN
Description: Bovine pancreatic trypsin inhibition, N-α-Benzoyl-L-Arg-pNA substrate. The following applies: the 5th table, unit inferred. How it is done:
(§1) Protease inhibition was assayed according to published procedures with minor modifications using various proteases and specific chromogenic peptide p-nitroanilide substrates. Assays were performed in Costar ultra-low cluster 96-well microtiter plate (Costar Corning Corp., Cambridge Mass.). Each protease was incubated with various concentrations of the test compound for 15 min. at 37° C. or as otherwise indicated, in specific assay buffer, and the residual activity was then measured by addition of the substrate. p-Nitroaniline produced by the proteolysis was determined by measuring the change in absorbance at 405 nm on a SpectraMAX 340 plate reader (Molecular devices, Sunnyvale, Calif.).
(§2) 1. The inhibition constant, Ki is calculated from individual data points using the equation for a tight-binding inhibitor (See Beith, “Proteinase Inhibitors-Proceedings of 2nd Int. Res. Conference”, Fritz, et al. eds., New York, p.4463-4469 (1974)):
(§3) The Ki values are obtained by correcting Ki ′ values for the effect of substrate concentration according to: [formula]
(§4) 2. Other inhibition data (Ki>>[E]o), the Ki is calculated from using the equations for a competitive inhibitor: [formula]
C. Bovine Pancreatic Trypsin
Bovine pancreatic Trypsin (TPCK-treated) activity was determined by using N-α-Benzoyl-L-Arg-pNA in 50 mM Tris-HCl, pH 8.2, 20 mM CaCl2 (See Somorin, et al., J. Biochem. 85, 157-162 (1979)).
(§5) The inhibition constant (Ki) of the test compounds against each proteolytic enzyme was determined according to Zitnik et al., Biochem. Biophys. Res. Commun. 232, 687-697 (1997)).

The target of assay [2] is T2, Human plasma thrombin (Homo sapiens, UniProt P00734).
T2 construct: from tissue; host or cells: human plasma
Description: Human plasma thrombin inhibition, H-D-Phe-Pip-Arg-pNA substrate. As to conditions: the 5th table, unit inferred. The protocol:
as §1, §2, §3, §4
Human plasma thrombin activity was determined by using H-D-Phe-Pip-Arg-pNA in 50 mM Tris-HCl, pH 8.3, 100 mM NaCl, 1% BSA (See Lottenberg, et al., Meth. Enzymol. 80, 341-361 (1981)).
as §5

Assay [3] addresses T3, Human plasma plasmin (Homo sapiens, UniProt P00747).
T3 construct: from tissue; host or cells: human plasma
The assay can be described thus: Human plasma plasmin inhibition, Tosyl-Gly-Pro-Lys-pNA substrate. As to conditions: 100 mM Tris-HCl, pH 7.4, 100 mM NaCl, 0.05% Triton X-100. How it is done: as §1
(§6) 1. The inhibition constant, Ki is calculated from individual data points using the equation for a tight-binding inhibitor (See Beith, “Proteinase Inhibitors-Proceedings of 2nd Int. Res. Conference”, Fritz, et al. eds., New York, p.4463-4469 (1974)): […]
as §4
Human plasma plasmin activity was determined by using Tosyl-Gly-Pro-Lys-pNA in 100 mM Tris-HCl, pH 7.4, 100 mM NaCl, 0.05% Triton X-100 (See Lottenberg, et al., Meth. Enzymol. 80, 341-361 (1981)).
(§7) The inhibition constant (Ki) of the test compounds against each proteolytic enzyme was determined according to Zitnik et al., Biochem. Biophys. […]

In assay [4] the target is T4, Human plasma kallikrein (Homo sapiens, UniProt P03952).
T4 construct: from tissue; host or cells: human plasma
The assay can be described thus: Human plasma kallikrein inhibition, H-D-Prolyl-Phe-Arg-pNA substrate. The following applies: 50 mM Tris-HCl, pH 7.8, 200 mM NaCl, 0.05% BSA. The protocol: as §1, §6
(§8) 2. Other inhibition data (Ki>>[E]o), the Ki is calculated from using the equations for a competitive inhibitor: [formula] […]
Human plasma and r-tissue kallikrein activity were determined in 50 mM Tris-HCl1, pH 7.8, 200 mM NaCl, 0.05% BSA by using H-D-Prolyl-Phe-Arg-pNA and DL-Val-Leu-Arg-pNA, respectively (See Lottenberg, et al., Meth. Enzymol. 80, 341-361 (1981)). […]

Assay [5] deals with T5, Bovine Pancreatic Chymotrypsin (Bos taurus, UniProt P00766).
T5 construct: from tissue; host or cells: bovine pancreas
The assay can be described thus: Bovine pancreatic chymotrypsin inhibition, N-Suc-Ala-Ala-Pro-Phe-pNA substrate. The following applies: 100 mM Tris-HCl, pH 7.8, 10 mM CaCl2. The protocol: as §1, §6, §8
Bovine Pancreatic Chymotrypsin activity was determined by using N-Suc-Ala-Ala-Pro-Phe-pNA in 100 mM Tris-HCl, pH 7.8, 10 mM CaCl2 (See Delmar, et al., J. Biochem. 85, 157-162 (1979)).
as §7

T4 sequence (P03952 391-638 limits assumed): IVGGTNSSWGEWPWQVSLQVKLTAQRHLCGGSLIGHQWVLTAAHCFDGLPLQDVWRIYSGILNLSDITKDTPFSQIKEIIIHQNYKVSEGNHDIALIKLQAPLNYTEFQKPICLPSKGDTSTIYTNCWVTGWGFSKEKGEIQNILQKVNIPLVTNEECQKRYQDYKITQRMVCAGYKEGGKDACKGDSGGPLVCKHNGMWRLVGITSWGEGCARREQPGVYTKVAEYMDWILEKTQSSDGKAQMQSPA
T4 sequence (P03952 20-390 partner limits assumed): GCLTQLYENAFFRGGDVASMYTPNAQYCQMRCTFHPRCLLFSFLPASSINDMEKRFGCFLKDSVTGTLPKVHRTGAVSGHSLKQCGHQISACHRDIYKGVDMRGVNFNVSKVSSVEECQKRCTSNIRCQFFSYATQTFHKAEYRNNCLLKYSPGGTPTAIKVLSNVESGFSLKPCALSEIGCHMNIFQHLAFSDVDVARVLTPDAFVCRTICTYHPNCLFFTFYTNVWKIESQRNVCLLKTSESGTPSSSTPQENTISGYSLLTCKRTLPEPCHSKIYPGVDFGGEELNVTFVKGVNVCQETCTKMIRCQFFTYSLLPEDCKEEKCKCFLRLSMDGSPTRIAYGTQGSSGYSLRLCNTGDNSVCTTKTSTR
T3 sequence (P00747 581-810 limits assumed): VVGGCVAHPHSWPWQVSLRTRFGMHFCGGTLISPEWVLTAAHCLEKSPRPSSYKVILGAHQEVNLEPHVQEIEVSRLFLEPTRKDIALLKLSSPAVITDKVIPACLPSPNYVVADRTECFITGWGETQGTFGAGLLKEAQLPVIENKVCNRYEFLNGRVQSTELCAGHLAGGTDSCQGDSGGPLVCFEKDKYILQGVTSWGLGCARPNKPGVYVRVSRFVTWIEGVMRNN
T3 sequence (P00747 97-580 partner limits assumed): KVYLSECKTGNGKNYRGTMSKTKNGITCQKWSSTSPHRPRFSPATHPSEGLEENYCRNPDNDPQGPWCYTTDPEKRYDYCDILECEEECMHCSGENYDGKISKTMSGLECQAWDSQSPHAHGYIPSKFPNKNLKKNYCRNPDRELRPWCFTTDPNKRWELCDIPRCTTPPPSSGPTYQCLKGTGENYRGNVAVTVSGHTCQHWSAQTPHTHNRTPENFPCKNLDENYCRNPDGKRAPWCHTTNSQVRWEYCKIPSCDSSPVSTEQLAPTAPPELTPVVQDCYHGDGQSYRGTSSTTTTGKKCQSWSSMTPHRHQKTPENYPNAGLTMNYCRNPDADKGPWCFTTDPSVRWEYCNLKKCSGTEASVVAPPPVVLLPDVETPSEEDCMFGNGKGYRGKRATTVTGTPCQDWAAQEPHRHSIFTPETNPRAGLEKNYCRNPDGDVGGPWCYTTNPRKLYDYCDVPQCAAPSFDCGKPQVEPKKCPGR

Regarding `Cc1cc2cc(CNC(=O)Cc3cc4cc(C(=N)N)ccc4s3)ccc2[nH]1` [drawing 17 Benzthiophene 5-carboxamidine n=1], the Ki was 2400 nM in assay [1]; 25800 nM in assay [2]; 2700 nM in assay [3]; 1600 nM in assay [4]; above 100000 nM in assay [5].
